# Reference: a melting point compilation (Tetko et al.; mined from patent text by program, amines drawn as free bases though some values may be those of a salt)
row,melting point [°C],SMILES
1,159 to 162,O=C(C(=Cc1cc(O)c(O)c([N+](=O)[O-])c1)C(=O)C1CC1)C1CC1
2,151 to 152,Cc1oc(-c2ccco2)nc1COc1ccc(COc2ncccc2CC(=O)O)cc1
3,108 to 109,O=[N+]([O-])c1cnccc1NCc1ccccc1F
4,41 to 42,COc1ccc([C@@H]2O[C@@](O[Si](C)(C)C)(C(F)(F)F)[C@H](Cc3ccccc3)N2C(=O)OCc2ccccc2)cc1
5,81 to 83,O=C1NC(=O)C(Cc2ccc(OC[C@@H]3CCCN3c3ccc4ccccc4n3)cc2)S1 (some centres not stated)
6,96 to 98,CCNC(=O)c1cc(Br)sc1[Si](C)(C)C
7,181 to 183,O=C(O)Cc1ccc2c3c(ccc2c1)OCC3
8,72 to 73,CCOC(=O)C1(c2ccccc2)CCC=CC1OC(C)=O (configuration not stated)
9,182 to 184,N=C(Nc1ccc(Cl)cc1)Nc1ncccc1OCc1ccc(F)cc1F
10,179 to 180,N#Cc1ccc(Cn2cncc2CCOc2ccc3c(c2CCc2ccccc2)CCCC3=O)cc1
11,138 to 140,COc1ccc(C(=O)c2c(N)sc3c2CCN(C(=O)c2ccc(Cl)cc2)C3)cc1OC
12,105 to 107,O=C(N[C@H]1CC[C@@H](F)CC1)OCc1ccccc1
13,158 to 160,O=C(O)Cc1ccc(-c2ccc(C(F)(F)F)cc2)cc1
14,100 to 101,O=C(Nc1ccc(F)cc1)N1CC=CCN1
15,123 to 135,CCOC(=O)c1nc(-c2ccc(Cl)cc2F)cc(N)c1OCC(F)(F)F
16,90 to 91,CC(C)(C)OC(=O)N[C@@H](COc1ccccc1N)C(=O)O
17,164 to 165,O=C1CCC2(CCN1)Cc1ccccc1C2
18,291 to 292,Cn1ncc(/C=C/C(=O)Nc2ccc(C(=O)O)cc2)c1-c1ccc(F)cc1
19,152 to 153,COCCn1cc(-c2ccccc2)[nH]c1=O
20,89 to 91,CCCC(=O)C(=CNc1cscc1OC)C(=O)OCC
21,138 to 140,COc1ccc(C(=O)C2CCN(C(C)=O)CC2)c(O)c1
22,184 to 186,O=C(O)Cc1ccc2c(c1)Cc1ccccc1-2
23,185,Oc1ccccc1-c1cccnc1

row,melting point [°C],SMILES
1,158 to 159,COC(=O)c1cc2cc(NC(C)=O)ccc2o1
2,36 to 39,COCCCCc1cccc(C2(c3ccc(OC(F)F)cc3)N=C(N)N(C)C2=O)c1 (configuration not stated)
3,173 to 174,Cc1cccc(C(=O)c2[nH]c3ccc(Cl)cc3c2CC(=O)O)c1
4,192 to 194,CC(C)C#CC1(C(F)(F)F)OCC(=O)Nc2ccc(F)c(F)c21 (configuration not stated)
5,60 to 61.5,Cc1cccc2c1CCN=C2c1ccc(Br)cc1
6,97 to 99,CCCC(=O)c1cnn(C)c1S(N)(=O)=O
7,56,O=S(=O)(Cl)c1sc(Cl)c(Cl)c1Cl
8,116,CSc1cc(C(F)(F)F)cc(Cl)c1-n1c(Br)nc(Cl)c1S(=O)(=O)C(F)F
9,190,Cc1cc(COc2ccc(C(=O)NC[C@@H](C(=O)NO)N3CCCCC3)cc2)c2ccccc2n1
10,130 to 131,CC1(COC(=O)Oc2c(F)c(F)c(F)c(F)c2F)COC(=O)OC1
11,176 to 178,CC(C)(CO)CNc1cc(C(c2cc(F)ccc2F)S(=O)(=O)c2ccc(Cl)cc2)c(Cl)cn1 (configuration not stated)
12,208 to 210,CC(C)C1COCc2nc3c(N)nc4ccc(O)cc4c3n21 (configuration not stated)
13,186,COC(=O)C1(NC(=O)Cc2cc(-c3ccc(Cl)cc3)ccc2C)CCC(F)(F)CC1
14,146 to 148,COc1ccc(CCNc2nccc(-c3cccc(NC(C)=O)c3)n2)cc1OC
15,97 to 98,COc1c(C(=O)c2ccc([N+](=O)[O-])cc2Cl)c(C)nn1C
16,165 to 166,O=C(c1cccs1)c1cccn1N1C(=O)c2ccccc2C1=O
17,84 to 85,O=C(O)CCCC/C=C(/c1cccnc1)c1cccs1
18,265 to 266,O=C(Nc1ccc(-c2cnc(-c3ccc(NC(=O)c4c(F)c(F)c(F)c(F)c4F)cc3)[nH]2)cc1)c1cccnc1
19,181 to 182,COc1cc2c(cc1OC)C1(CCC(C(=O)O)(C(=O)O)CC1)N(C(=O)OCc1ccccc1)CC2
20,310 to 330,CC1=C(c2ccccc2)CCC(=O)N1
21,124 to 125,CSc1nc(O)c(NC(=O)c2ccco2)c(O)n1
22,177 to 179,C=Cc1cc(C)cc(C)c1CC(=O)N(O)C1(C(=O)OC)CCN(OC)CC1
23,137 to 139,CCOc1cc(C(CC(=O)CC)N2C(=O)c3cccc(NC(C)=O)c3C2=O)ccc1OC (configuration not stated)

# Second part, the molecule before the results:
row,SMILES,melting point [°C]
1,CC(C)(CNc1ccnc2cc(Cl)ccc12)NCc1ccc(C(F)(F)F)cc1,145 to 147
2,CC(C)(C)OC(=O)[C@@H]1CC[C@@H]2C=C[C@H]3CCN(C(=O)OC(C)(C)C)[C@@H]3C(=O)N21,147 to 149
3,CCOC(=O)C1=C(C)NC(C)=C(C(=O)OCCN2C(=O)c3ccccc3C2=O)C1c1cccc([N+](=O)[O-])c1 (configuration not stated),194 to 195
4,CC(=O)c1nc2cc(Cl)c(OCC(F)(F)F)cc2cc1OCc1ccccc1,110 to 112
5,CN(C)c1nc2cc(C(F)(F)F)ccc2n1Cc1ccc(Cl)cc1,103 to 107
6,O=C1C(=O)N(C(c2ccccc2)c2ccccc2)c2cccc(F)c21,168 to 171
7,O=[N+]([O-])c1cc2c(Nc3cc(Cl)c(Cl)cc3F)ncnc2cc1OCCOCCO,149
8,CCNC(=O)n1nc(Oc2cc(OCC)ccc2[N+](=O)[O-])cc1C,73 to 75
9,CCOC(=O)c1cnc2c([N+](=O)[O-])cccc2c1N(C)C,76 to 77
10,NC(=S)Nc1cc(Cl)cc(Cl)c1,180
11,CC(C)Oc1cc(CCCOc2cc(CCC(=O)O)n(-c3ccccc3)n2)cc(COc2ccc(Cl)cc2Cl)c1,104 to 106
12,O=C1CCCc2ncccc2N1,156 to 159
13,COC(=O)C1=C(C)NC(CC(=O)N2CCN(C3CC4CC(=O)CC4C3)CC2)=C(C(=O)OC)C1c1c(Cl)cccc1Cl (configuration not stated),145 to 155
14,CN1[C@H]2CC[C@@H]1[C@H](C(=O)Oc1ccc(Cl)cc1)[C@@H](c1ccc(F)cc1)C2,64 to 66
15,O=C(CO)Cc1ccccc1,42 to 43
16,CC(=O)SCCC(=O)OC(=O)CO,150 to 157
17,O=C(O)COc1cccc(C(O)C(c2ccccc2)C2SCCCS2)c1 (configuration not stated),99 to 101
18,COc1ccc(Nc2nccc(-c3cccnc3)n2)cc1,121 to 122
19,CC(C)(c1ccc(O)cc1)c1ccc(N2C(=O)C=CC2=O)cc1,168 to 171

row,SMILES,melting point [°C]
1,CC1(C)CCC(C)(C)c2cc(CCCn3cccn3)c(/C=C/c3ccc(C(=O)O)cc3)cc21,182
2,COc1cc2c(Cl)c(C#N)cnc2cc1N1CCN(C)CC1,177 to 179
3,C#CCNC(=O)c1ccccc1Nc1nc(Cl)ncc1Cl,188 to 191
4,COc1ccc2c(c1O)NC(O)C1CCCN1C2=O (configuration not stated),152 to 155
5,"O=C(Cc1cc(Cl)cc(Cl)c1)NC1N=C(C2CC2)c2ccccc2N(CC(F)(F)F)C1=O (single isomer, unassigned; (+))",152 to 153
6,Nc1cc(-n2c(=O)oc3c(c2=O)CCC3)c(F)cc1Cl,93
7,CCNC1Cc2c[nH]c3ccc(OC)c(c23)C1(C)O (configuration not stated),185 to 187
8,C[C@H]1COS(=O)(=O)N1C(=O)OC(C)(C)C,121 to 122
9,COc1ccc2c(Cc3c(Cl)cncc3Cl)n[nH]c(=O)c2c1,259 to 262
10,Cc1nc(-c2ccc(F)cc2)n(-c2ccc(S(N)(=O)=O)cc2)n1,220 to 221
11,COc1cccc(CNC(=O)c2nc3scc(COCc4ccc(CO)cc4)c3c(=O)[nH]2)c1,156 to 157
12,CC(C)n1nc(-c2c(N)nc(N)nc2-c2ccccc2)ccc1=O,258 to 260
13,Cc1cc(Oc2ccc(N)cc2)c2ncccc2c1,184 to 185
14,COc1ccc2[nH]c(S(=O)Cc3cc(N(C)C)c(F)cn3)nc2c1 (configuration not stated),99 to 102
15,Cc1cc2c(cc1C)OCCC(C(=O)O)=C2,266 to 267
16,CCCCc1ccc(CC(Cl)C(=O)O)cc1 (configuration not stated),52.7 to 53.6
17,Nc1ccc(S(=O)(=O)Nc2cc(Cl)nc(C(F)(F)F)c2)cc1,179 to 181
18,CC1Nc2ccccc2C(=O)N1CCN1CCC(c2noc3cc(F)ccc23)CC1 (configuration not stated),164 to 165
19,COc1cc(Cl)cc(Cl)c1C1=NC(C)(C)CO1,45

row,SMILES,melting point [°C]
1,O=[N+]([O-])c1cc(C(F)(F)F)cc2c(Cl)ccnc12,100 to 107
2,COc1ccc(-c2nc(CN(C)C)nc3sc(C)c(C)c23)cc1OC,118 to 120
3,Cc1nc2cccc(OCC(C)(C)NC(=O)C3CCOCC3)c2c(N)c1C(=O)O,170 to 173
4,CCOc1cc(Cn2cc(CCC(=O)O)c(OCC)n2)ccc1OCc1nc(-c2ccccc2)oc1C,105 to 106
5,ON=C1CCC2(O)C3Cc4ccc(O)c5c4C2(CCN3CC2CC2)C1O5 (configuration not stated),235 to 236
6,CCCc1c(C(=O)C(C)C)c2ccc(C(N)=O)cc2n1Cc1ccc(F)cc1Cl,192 to 193
7,COC(=O)c1cccc(I)c1C(=O)NC(C)(C)CS(C)=O (configuration not stated),151 to 152
8,COc1cc(OC)nc(Oc2cccc(Oc3nc(OC)cc(OC)n3)c2C(=O)OCc2ccccc2)n1,130 to 132
9,Cc1cc(C=C2CCCC(=Cc3cc(C)c(O)c(C)c3)C2=O)cc(C)c1O,225 to 226
10,O=C(O)c1cc(F)c(N2CCNCC2)nc1Nc1ccc(F)cc1F,279 to 281
11,CCc1cn(C)cc(-c2cccc(C(F)(F)F)c2)c1=O,95.5 to 96.5
12,C[C@@H]1CCC[C@H](C)N1CCCNC(=O)CN1C(=O)CCC1(C)C,86 to 87
13,CNC(=O)N(OC(=O)Oc1ccccc1)c1ccc(Cl)c(Cl)c1,93
14,CC1(C)C(=O)Nc2ccc(-c3ccc(C#N)[nH]3)cc21,256 to 258
15,CCOC(=O)C[C@@H](C)NC(=O)N[C@H]1CCN(c2ccc(C#N)cc2)C1=O,178 to 179
16,O=Cc1csc2cc([N+](=O)[O-])ccc12,187 to 192
17,CC(=O)On1c(=O)c(=O)[nH]c2cc(Cl)ccc21,219
18,CC(=O)Nc1ccccc1N(CC(=O)OC(C)(C)C)C(=O)CN1C(=O)c2ccccc2C1=O,170
